# Measured values as given in US12325710B2, “Substituted 1,2,3,4,5,6-hexahydroazepino[4,5-b]indoles for treating brain disorders” (priority 2019, dated 2025).
# “Also recorded” adds a separate entry of the source.
# Columns and labels:
# [1] = test system: 5HT2A sensor; experiment: 5HT2A sensor assay (sLight1.3s HEK293T cells), agonist and antagonist mode; format: cell-based; settings: for activation of 5HT2A sensor, agonist mode / competition with 5HT binding at 5HT2A sensor, antagonist mode: 10 μM of compound; for activation of 5HT2A sensor, agonist mode: FIG. 16; for competition with 5HT binding at 5HT2A sensor, antagonist mode: FIG. 18; for activation of 5HT2A sensor, agonist mode, dose response: FIG. 15
# Protocol: 5HT2A Sensor Assays. HEK293T (ATCC) 5HT2A sensor stable line (sLight1.3s) was generated via lentiviral transduction of HIV-EF1α-sLight1.3 and propagated from a single colony. Lentivirus was produced using 2nd generation lentiviral plasmids pHIV-EF1α-sLight1.3, pHCMV-G, and pCMV-deltaR8.2.
# For the screening of the 41 compounds, sLight1.3s cells were plated in 96-well plates at a density of 40000 24-hours prior to imaging. On the day of imaging, compounds solubilized in DMSO were diluted from the 100 mM stock solution to working concentrations of 1 mM, 100 μM and 1 μM with a DMSO concentration of 1%. Immediately prior to imaging, cells growing in DMEM (Gibco) were washed 2× with HBSS (Gibco) and in agonist mode 180 μL of HBSS or in antagonist mode 160 μL of HBSS was added to each well after the final wash. For agonist mode, images were taken before and after the addition of the 20 μL compound working solution into the wells containing 180 μL HBSS. This produced final compound concentrations of 100 μM, 10 μM and 100 nM with a DMSO concentration of 0.1%. For antagonist mode, images were taken before and after addition of 20 μL of 900 nM 5-HT and again after 20 μL of the compound working solutions to produce final concentrations of 100 nM for 5HT and 100 μM, 10 μM and 100 nM for the compounds with a DMSO concentration of 0.1%. Each compound was tested in triplicates (3 wells) for each concentration (100 μM, 10 μM and 100 nM). Additionally, within each plate, 100 nM 5HT and 0.1% DMSO controls were also imaged.
# For each well, the cellular membrane where the 5HT2A sensor is targeted was autofocused using the adaptive focus controls and 5 images from different regions within the well were taken with each image processed from a 2×2 binning.
# For data processing, the membranes from each image was segmented and analyzed using a custom algorithm written in MATLAB producing a single raw fluorescence intensity value. For each well the 5 raw fluorescence intensity values generated from the 5 images were averaged and the change in fluorescence intensity (dFF) was calculated as: dFF=(Fsat−Fapo)/Fapo
# For both agonist and antagonist modes, the fluorescence intensity values before compound addition in HBSS only were used as the Fapo values while the fluorescence intensity values after compound addition were used as the Fsat values.
# For agonist mode, data are as percent activation relative to 5HT, where 0 is the average of the DMSO wells and 100 is the average of the 100 μM 5HT wells.
# [2] = target: 5-HT2B receptors (Homo sapiens, UniProt P41595); experiment: 5-HT2B Gq-mediated calcium flux functional assay; format: cell-based
# Protocol: Serotonin and Opioid Receptor Functional Assays. Functional assay screens at 5-HT and opioid receptors were performed in parallel using the same compound dilutions and 384-well format high-throughput assay platforms. Assays assessed activity at all human isoforms of the receptors, except where noted for the mouse 5-HT2A receptor. Receptor constructs in pcDNA vectors were generated from the Presto-Tango GPCR library with minor modifications. All compounds were serially diluted in drug buffer (HBSS, 20 mM HEPES, pH 7.4 supplemented with 0.1% bovine serum albumin and 0.01% ascorbic acid) and dispensed into 384-well assay plates using a FLIPR^TETRA (Molecular Devices). Every plate included a positive control such as 5-HT (for all 5-HT receptors), DADLE (DOR), salvinorin A (KOR), and DAMGO (MOR). For measurements of 5-HT2A, 5-HT2B, and 5-HT2C Gq-mediated calcium flux function, HEK Flp-In 293 T-Rex stable cell lines (Invitrogen) were loaded with Fluo-4 dye for one hour, stimulated with compounds and read for baseline (0-10 seconds) and peak fold-over-basal fluorescence (5 minutes) at 25° C. on the FLIPR^TETRA. For measurement of 5-HT6 and 5-HT7a functional assays, Gs-mediated cAMP accumulation was detected using the split-luciferase GloSensor assay in HEKT cells measuring luminescence on a Microbeta Trilux (Perkin Elmer) with a 15 min drug incubation at 25° C. For 5-HT1A, 5-HT1B, 5-HT1F, MOR, KOR, and DOR functional assays, Gi/o-mediated cAMP inhibition was measured using the split-luciferase GloSensor assay in HEKT cells, conducted similarly as above, but in combination with either 0.3 μM isoproterenol (5-HT1A, 5-HT1B, 5-HT1F) or 1 μM forskolin (MOR, KOR, and DOR) to stimulate endogenous cAMP accumulation. For measurement of 5-HT1D, 5-HT1E, 5-HT4, and 5-HT5A functional assays, β-arrestin2 recruitment was measured by the Tango assay utilizing HTLA cells expressing TEV fused-β-arrestin2, as described previously with minor modifications. […]
# [3] = test system: C57BL/6J mice; experiment: Head-twitch response (HTR) assay; settings: intraperitoneal; fumarate salts; 5-MeO-DMT 10 mg/kg as positive control
# [4] = test system: rat embryonic cortical neurons; experiment: Dendritogenesis (Sholl analysis) in cultured cortical neurons; format: cell-based; settings: 1 h treatment followed by 71 h growth; compared to vehicle (VEH)
# Protocol: Embryonic rat cortical neurons were treated for a short period of time (1 h) followed by a suitable growth period (71 h) to measure the psychoplastogenic effects of the compounds described herein. […] Therefore, the effects of ibogalogs 8-17 on dendritic growth was assessed.
# Dendritogenesis Experiments. For the dendritogenesis experiments conducted using cultured cortical neurons, timed pregnant Sprague Dawley rats were obtained from Charles River Laboratories (Wilmington, MA). Full culturing, staining, and analysis details were performed as previously described. (Dunlap, L. et al., 2019)
# [5] = test system: mouse primary sensory cortex; experiment: In vivo spine dynamics, transcranial 2-photon imaging; settings: 24 h after i.p. dose; TBG 50 mg/kg, DOI 10 mg/kg
# Protocol: In Vivo Spine Dynamics. Male and female Thy1-GFP-M line mice (n=5 per condition) were purchased from The Jackson Laboratory (JAX #007788) and maintained in UCSC animal facilities according to an IACUC approved protocol. In vivo transcranial two-photon imaging and data analysis were performed as previously described. Briefly, mice were anesthetized with an intraperitoneal (i.p.) injection of a mixture of ketamine (87 mg/kg) and xylazine (8.7 mg/kg). A small region of the exposed skull was manually thinned down to 20-30 μm for optical access. Spines on apical dendrites in mouse primary sensory cortices were imaged using a Bruker Ultima IV two-photon microscope equipped with an Olympus water-immersion objective (40×, NA=0.8) and a Ti:Sapphire laser (Spectra-Physics Mai-Tai, excitation wavelength 920 nm). Images were taken at a zoom of 4.0 (pixel size 0.143×0.143 μm) and Z-step size of 0.7 μm. The mice received an i.p. injection (injection volume=5 mL/kg) of DOI (10 mg/kg) or TBG (50 mg/kg) immediately after they recovered from anesthesia given prior to the first imaging session. The animals were re-imaged 24 h after drug administration. Dendritic spine dynamics were analyzed using ImageJ. Spine formation and elimination were quantified as percentages of spine number on day 0.
# [6] = test system: larval zebrafish expressing GCaMP5; experiment: Seizurogenic potential in larval zebrafish expressing GCaMP5; format: in vivo; settings: 200 μM; PTZ positive control
# Protocol: Transgenic larval zebrafish expressing GCaMP5G were immobilized in agarose, treated with compounds, and imaged over time. The known seizure-inducing compound PTZ was used as a positive control. All compounds were treated at 200 μM (n=2 per condition).
# [7] = test system: larval zebrafish; experiment: Larval zebrafish movement activity during a battery of light and acoustic stimuli; settings: for behavioral phenotype at highest concentration versus lethal control: 200 μM; for behavioral phenotype with increasing concentration versus vehicle and lethal control (eugenol, 100 μM): 1 h treatment, concentration-response
# Text: Stimuli applied over time are indicated under the heatmaps. Colors indicate bright LED light of respective colors, black traces represent the waveforms of acoustic stimuli, and gray vertical lines indicate physical tapping as secondary acoustic stimuli.
# Response is […] proportional to classification accuracy; 0-20% indicates no ability and 100% indicates perfect classification. […] The solid line denotes the median and the shading denotes a 95th percentile confidence interval calculated by bootstrap. N=8 wells/condition (64 animals/condition).
# [8] = test system: zebrafish; experiment: Zebrafish developmental toxicity assay; format: in vivo; settings: 100 μM; 2 and 5 dpf
# Sequence of 5-HT2B receptors (P41595 whole entry, canonical isoform): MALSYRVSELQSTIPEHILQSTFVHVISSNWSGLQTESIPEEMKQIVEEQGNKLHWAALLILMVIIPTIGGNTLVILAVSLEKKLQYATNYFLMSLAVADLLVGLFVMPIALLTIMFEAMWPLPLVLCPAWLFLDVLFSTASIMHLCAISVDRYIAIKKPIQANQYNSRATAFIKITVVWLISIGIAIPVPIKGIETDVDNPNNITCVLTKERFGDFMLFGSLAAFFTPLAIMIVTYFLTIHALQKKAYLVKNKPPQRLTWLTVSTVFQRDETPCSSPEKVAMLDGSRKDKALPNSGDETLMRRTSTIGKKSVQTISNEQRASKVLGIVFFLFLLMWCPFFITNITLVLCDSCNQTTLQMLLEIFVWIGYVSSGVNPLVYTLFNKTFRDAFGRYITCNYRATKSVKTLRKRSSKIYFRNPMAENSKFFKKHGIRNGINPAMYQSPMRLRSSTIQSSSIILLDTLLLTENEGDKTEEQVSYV
molecule,measurement,setting,value
CCN(CC)C(=O)[C@@H]1C=C2c3cccc4[nH]c(Br)c(c34)C[C@H]2N(C)C1 [BOL148],"activation of 5HT2A sensor, agonist mode",[1],do not activate the 5HT2A sensor assay in agonist mode
same,"competition with 5HT binding at 5HT2A sensor, antagonist mode",[1]; antagonist mode,compete with 5HT binding to 5HT2A
"COc1ccc2[nH]cc(CCN(C)C)c2c1 [Compound 5-MeO-DMT, 5-methoxy-N,N-dimethyltryptamine, reference compound]",activity mode at 5-HT2B receptors,[2],agonists of 5-HT2B receptors
same,"activation of 5HT2A sensor, agonist mode",[1],activate the 5HT2A sensor assay in agonist mode
same,"activation of 5HT2A sensor, agonist mode, dose response",[1],activate a 5HT2A sensor assay in agonist mode
same,hallucinogenic potential (head-twitch response),[3],robust HTR
CCN(CC)CCc1c[nH]c2cc(F)ccc12 [Compound 6-F-DET],"activation of 5HT2A sensor, agonist mode",[1],do not activate the 5HT2A sensor assay in agonist mode
same,"competition with 5HT binding at 5HT2A sensor, antagonist mode",[1]; antagonist mode,compete with 5HT binding to 5HT2A
COc1ccc2c(CCN(C)C)c[nH]c2c1 [Compound 6-MeO-DMT],"activation of 5HT2A sensor, agonist mode",[1],do not activate the 5HT2A sensor assay in agonist mode
same,"activation of 5HT2A sensor, agonist mode, dose response",[1],do not
same,"competition with 5-HT at 5HT2A sensor, antagonist mode, dose response","[1]; antagonist mode, FIG. 17",compete off 5-HT
CCC1CC2CCC1N(CCc1c[nH]c3ccc(O)cc13)C2 (stereo not drawn) [Compound 11b],psychoplastogenic effect on dendritic growth (Sholl analysis),[4],weak psychoplastogens or did not promote neuronal growth
CN(C)CCc1c[nH]c2ccccc12 [DMT],"activation of 5HT2A sensor, agonist mode",[1],activate the 5HT2A sensor assay in agonist mode
"COc1cc(CC(C)N)c(OC)cc1I (stereo not drawn) [DOI, 2,5-dimethoxy-4-iodoamphetamine, reference compound]","activation of 5HT2A sensor, agonist mode",[1],activate the 5HT2A sensor assay in agonist mode
same,spine elimination,[5],no effect on spine elimination; also recorded: Neither TBG nor DOI affected spine elimination
same,spine formation,[5],increased spine formation
"O=C(c1ccc(F)cc1)C1CCN(CCn2c(=O)[nH]c3ccccc3c2=O)CC1 [Ketanserin, ketanserin]","activation of 5HT2A sensor, agonist mode",[1],do not activate the 5HT2A sensor assay in agonist mode
same,"competition with 5HT binding at 5HT2A sensor, antagonist mode",[1]; antagonist mode,compete with 5HT binding to 5HT2A
"CCN(CC)C(=O)[C@@H]1C=C2c3cccc4[nH]cc(c34)C[C@H]2N(C)C1 [LSD, lysergic acid diethylamide]","activation of 5HT2A sensor, agonist mode",[1],activate the 5HT2A sensor assay in agonist mode
same,"activation of 5HT2A sensor, agonist mode, dose response",[1],activate a 5HT2A sensor assay in agonist mode
"C1CCc2nnnn2CC1 [PTZ, pentylenetetrazole, reference compound]",seizure induction (neural activity),[6],excessive neural activity
CNC(C)Cc1ccc2c(c1)OCO2 (stereo not drawn) [R-MDMA],"activation of 5HT2A sensor, agonist mode",[1],do not activate the 5HT2A sensor assay in agonist mode
"O=S1OCC2C(CO1)C1(Cl)C(Cl)=C(Cl)C2(Cl)C1(Cl)Cl (stereo not drawn) [endosulfan, reference compound]",behavioral phenotype at highest concentration versus lethal control,[7],phenotypically consistent with the lethal control
"O=C(CCCN1CCC(O)(c2ccc(Cl)cc2)CC1)c1ccc(F)cc1 [haloperidol, reference compound]","behavioral phenotype with increasing concentration versus vehicle and lethal control (eugenol, 100 μM)",[7],"more phenotypically distinct from the vehicle control, while more closely resembling the lethal control"
"CC[C@H]1C[C@H]2C[C@H]3c4[nH]c5ccc(O)cc5c4CCN(C2)[C@@H]13 [noribogaine, reference compound]",behavioral phenotype at highest concentration versus lethal control,[7],phenotypically consistent with the lethal control
same,"behavioral phenotype with increasing concentration versus vehicle and lethal control (eugenol, 100 μM)",[7],"more phenotypically distinct from the vehicle control, while more closely resembling the lethal control"
same,"malformations, mortality, non-viable fish",[8],"greater survival, but the majority of the animals exhibited yolk sac and/or pericardial edemas"
"O=C1NCCN1CCN1CCC(c2cn(-c3ccc(F)cc3)c3ccc(Cl)cc23)CC1 [sertindole, reference compound]","behavioral phenotype with increasing concentration versus vehicle and lethal control (eugenol, 100 μM)",[7],"more phenotypically distinct from the vehicle control, while more closely resembling the lethal control"
"CC(C)(C)c1ccc(C(O)CCCN2CCC(C(O)(c3ccccc3)c3ccccc3)CC2)cc1 (stereo not drawn) [terfenadine, reference compound]","behavioral phenotype with increasing concentration versus vehicle and lethal control (eugenol, 100 μM)",[7],"more phenotypically distinct from the vehicle control, while more closely resembling the lethal control"
ibogaine [reference compound],psychoplastogenic effect on dendritic growth (Sholl analysis),[4],demonstrates psychoplastogenic effects
